≈ marks a conversion by molar mass, not a printed value. Where “and” joins values, the source holds several entries; their conditions need not be identical. Equal entries are not always repeated. Structures can show the parent of a compound that is named as a salt. Where two headings read alike, the source gives them in different places.

What is called IC50 is the concentration needed to halve the response being measured. The low end stands for inhibition by little substance, the high end for a need for much substance. What is called % Inhibition is the change of the read-out against control, counted positive when it falls. A higher % Inhibition goes with strong suppression. By MIC is commonly meant the least concentration at which growth counts as inhibited. In general, MBC refers to the lowest tested concentration that kills the bacteria rather than only halting them.

Experiment [1] is described as follows: IC50 of Table 2 (used for SI = IC50/MIC; test not described).
The subject of experiment [2] is M. avium. Briefly: inhibition of M. avium. The format is cell-based. To be noted: 12.5 μg/mL. Here is the method:
(§1) For comparison, MICs for the first line anti-TB drugs are 0.025-0.05 μg/mL for isoniazid, 0.005-0.2 μg/mL for rifampin, and 0.4-10 μg/mL for ethambutol. However, in a bone marrow-derived murine macrophage model, the BC 99 value of (+)-calanolide A, a concentration at which 99% of the inoculum of M. tuberculosis is destroyed, was 1.1 μg/mL (3 μM) against strain Erdman (TMCC 107/ATCC 35801) and 1.8 μg/mL (5 μM) against strain CSU 93 (CDC-95-031551), compared to 0.7-0.8 μg/mL (5-6 μM) for the positive control drug isoniazide.

In experiment [3] the test system is M. tuberculosis strain H37Rv. Briefly: MIC against strains of Table 1. The format is cell-based.
The test system of experiment [4] is M. tuberculosis strain CSU 93 (CDC-95-031551). Briefly: bone marrow-derived murine macrophage model, BC99. The format is cell-based. The note with it: concentration at which 99% of the inoculum is destroyed. Here is the method:
as §1

Experiment [5] has as its system M. tuberculosis' synthesis of protein, RNA, DNA and lipid. Description: incorporation of radiolabeled precursors into mycobacterial macromolecular components. It counts as cell-based.
Experiment [6] has as its system M. tuberculosis strain Erdman (TMCC 107/ATCC 35801). Description: bone marrow-derived murine macrophage model, BC99. It counts as cell-based.
Experiment [7] deals with H37Rv strain of M. tuberculosis. Briefly: BACTEC 460 radiometric system in BACTEC 12B medium: inhibition and MIC. The format is cell-based. The note with it: for % Inhibition: 12.5 μg/mL; for MIC: lowest concentration inhibiting 99% of the inoculum.
The subject of experiment [8] is M. tuberculosis strain H37Ra. Description: MIC against strains of Table 1. The format is cell-based.
Experiment [9] has as its system TB. To be noted: in vivo; cited from earlier work.
For experiment [10], the system named is M. tuberculosis. To be noted: first line anti-TB drugs, for comparison; cited from earlier work.
Experiment [11] has as its system M. tuberculosis H37Ra. Briefly: MIC and MBC determination using 2-fold dilutions. It counts as cell-based. To be noted: for MIC / MBC: Mycobacterium tuberculosis.
For experiment [12], the system named is M. tuberculosis H37Ra. Briefly: colorimetric microdilution broth assay with alamar Blue, initial screen at four log10 dilutions. The note with it: Mycobacterium tuberculosis, H37RA, initial screening at 0.128, 1.28, 12.8 and 128 μg/mL, read-out: MIC. It counts as cell-based. Here is the method:
The compounds synthesized above were evaluated for activity against M. tuberculosis H37Ra using a colorimetric microdilution broth assay that incorporated the REDOX indicator alamar Blue, which indicates the growth and viability by the metabolic reduction of the dye from blue to red^18.
In an initial screen, the compounds were assayed in duplicate at four log10 dilutions, with the highest concentration being 128 μg/mL (therefore, tested concentrations were 0.128, 1.28, 12.8, and 128 μg/mL). Each solubilized test compound was diluted in broth medium (Middlebrook 7H9+ADC enrichment+0.2% glycerol) at twice the desired concentration and 0.05 mL of each dilution then added to appropriate wells in duplicate in a 96 well (U-shaped) microtiter plates. A plate format was designed for up to seven (7) compounds per plate. Each plate also included uninoculated drug controls, viability controls, uninoculated medium controls, and positive drug controls. The inoculum for each well consisted of 0.05 mL of culture, standardized as described above to provide an inoculum in each microtiter well of approximately 10^5 CFU/mL. The plates were covered with a lid, placed in polyethylene bags and incubated for at 37° C. for 6 days. At that time, alamar Blue, diluted in Tween 80, was added to each well followed by further incubation for about 20 hours. The plates were read in an optical microplate reader programmed to subtract absorbance at 600 nm from absorbance at 570 nm. This effectively blanked out turbidity and absorbance due to oxidized dye. The amount of dye reduced, resulting in a change from blue to red, is indicative of drug yielding a differential absorption of zero or less.
(Broth dilution looks for growth in wells or tubes with falling amounts of substance.)

Setting [13] is: Mycobacterium tuberculosis, read-out: MIC.
[14] abbreviates: 2-fold dilutions, lowest concentration that completely inhibits growth, H37Ra, read-out: MIC.
Where [15] appears, read: minimum bactericidal concentration, H37Ra, read-out: MBC.

The molecule (+)-Calanolide A [(+)-Calanolide A (1)] displayed a half-inhibitory concentration (IC50) in experiment [1] of 7.60 µg/mL. In addition, the “% Inhibition” value in experiment [2] is 81%; in experiment [7], 96%; in [7] (listed as (+)-calanolide A) it was “greater than 96%”. Moreover, the minimal inhibitory concentration (MIC) in [3] was 8 µg/mL; in [7], 3.13 µg/mL; in experiment [7] (listed as (+)-calanolide A), 3.13 μg/mL and 8 μM; in [8], 16 µg/mL. The “BC 99” value in [4] was 1.8 μg/mL and 5 μM; in experiment [6] (concentration at which 99% of the inoculum is destroyed, strain Erdman), 1.1 μg/mL and 3 μM. In addition, the “inhibition of RNA synthesis, extent and time frame” value in experiment [5] is recorded as “very similar to the positive control rifampin”. Further, the “inhibition of protein synthesis” value in [5] turned out to be 32%. Also, the “inhibition of lipid synthesis” value in experiment [5] ([…], 12-hour time point, DMSO alone 51%) was 99%. The “inhibition of DNA synthesis” value in experiment [5] ([…], period of 3 hours, DMSO alone 24%) was “Approximately 77%”. Further, in experiment [6] (macrophage model), the “kind of agent from drug inhibition patterns” value is on record as “bactericidal agent”.
`CO[C@H]1/C=C/O[C@@]2(C)Oc3c(C)c(O)c4c(O)c(c(/C=N/N5CCN(C6CCCC6)CC5)c(O)c4c3C2=O)NC(=O)/C(C)=C\C=C\[C@H](C)[C@H](O)[C@@H](C)[C@@H](O)[C@@H](C)[C@H](OC(C)=O)[C@@H]1C` [rifapentine]: the TB relapse rate in experiment [9] was 10%.
For the molecule `CC[C@@H](CO)NCCN[C@@H](CC)CO` [Ethambutol], the MIC in [3] (setting [13]) is 2 µg/mL (≈ 9.79 µM); in [10] it was 0.4 to 10 µg/mL; in experiment [8] (setting [13]), 4 µg/mL (≈ 19.6 µM).
Consider `CCCc1cc(=O)oc2c(C(N)CC)c(OC(C)C)cc(OC(C)C)c12` (stereo not shown) [Compound 26c, 8-(1-Aminopropyl)-5,7-diisopropoxy-4-propyl-chromen-2-one, hydrochloride], for which the “effect on M. tuberculosis” value in experiment [11] is “bactericidal”. Also, the MIC in experiment [11] (setting [14]) was 16 µg/mL; in experiment [12], 1.28 to 12.8 µg/mL. Further, the MBC in experiment [11] (setting [15]) was determined as 64 µg/mL.
Turning to `NNC(=O)c1ccncc1` [Isoniazid], the MIC in experiment [3] (setting [13]) is 0.031 µg/mL (≈ 0.226 µM); in experiment [10] it was 0.025 to 0.05 µg/mL; in [8] (setting [13]), 0.063 µg/mL (≈ 0.459 µM). In addition, the “BC 99” value in experiment [6] (positive control, one range printed for strains Erdman and CSU 93, listed as isoniazide) was 0.7-0.8 μg/mL and 5-6 μM.
As for `C=CCOc1cc(OCC=C)c2c(CCC)cc(=O)oc2c1C(O)CC` (stereo not shown) [Compound 21d, 5,7-Bis-allyloxy-8-(1-hydroxy-propyl)-4-propyl-chromen-2-one], the values for the MIC in experiment [11] (setting [14]) and in experiment [12] were 16 µg/mL (≈ 44.6 µM) and 1.28 to 12.8 µg/mL (≈ 3.57 to 35.7 µM), respectively. The MBC in [11] (setting [15]) was over 64 µg/mL.
For `CO[C@H]1/C=C/O[C@@]2(C)Oc3c(C)c(O)c4c(O)c(c(/C=N/N5CCN(C)CC5)c(O)c4c3C2=O)NC(=O)/C(C)=C\C=C\[C@H](C)[C@H](O)[C@@H](C)[C@@H](O)[C@@H](C)[C@H](OC(C)=O)[C@@H]1C` [Rifampin], the minimum inhibitory concentration (MIC) in experiment [3] (setting [13]) is 0.016 µg/mL (≈ 0.0194 µM); in [10], 0.005 to 0.2 µg/mL. Besides, in experiment [9], the TB relapse rate is 5%.
Turning to `CCCc1cc(=O)oc2c(C(=O)CC)c(OC)c3c(c12)OC(C)(C)CC3` [Compound 44b, 5-Methoxy-2,2-dimethyl-6-propionyl-10-propyl-3,4-dihydro-2H-pyrano[2,3-f]chromen-8-one], the values for the MIC in experiment [11] (setting [14]) and in experiment [12] were 16 µg/mL (≈ 44.6 µM) and 1.28 to 12.8 µg/mL (≈ 3.57 to 35.7 µM), respectively. In addition, the minimum bactericidal concentration (MBC) in experiment [11] (setting [15]) is over 64 µg/mL.
On to `CCCc1cc(=O)oc2c(C(N)CC)c(OCCO)c3c(c12)OC(C)(C)C=C3` (stereo not shown) [Compound 45e, 6-(1-Aminopropyl)-5-(2-hydroxyethoxy)-2,2-dimethyl-10-propyl-2H-pyrano[2,3-f]chromen-8-one], for which, in experiment [11], the “effect on M. tuberculosis” value was “bactericidal”. In addition, in [11] (H37RA), the MBC turned out to be 32 µg/mL (≈ 82.6 µM) and inhibition of growth (MIC) required 16 µg/mL (≈ 41.3 µM). Also, the MIC in [12] lay within 1.28 to 12.8 µg/mL (≈ 3.3 to 33 µM).
Regarding `[H]/N=C(/N)N[C@H]1[C@H](O)[C@@H](O)[C@H](O[C@@H]2O[C@@H](C)[C@](O)(C=O)[C@H]2O[C@@H]2O[C@@H](CO)[C@H](O)[C@@H](O)[C@@H]2NC)[C@@H](N/C(N)=N\[H])[C@@H]1O` [Streptomycin], the minimum inhibitory concentration (MIC) in experiment [3] (setting [13]) was 0.25 µg/mL (≈ 0.43 µM). Besides, the “inhibition of protein synthesis” value in experiment [5] (positive control, at 5 hours) is 43%.
For the molecule `CCCc1cc(=O)oc2c3c(c4c(c12)OC(C)(C)C=C4)O[C@H](C)[C@@H](C)C3N` (stereo partly shown) [Compound 22], the “effect on M. tuberculosis” value in [11] was “bactericidal”. Also, the MIC was 16 µg/mL (≈ 43.3 µM) in [11] (setting [14]) and 1.28 to 12.8 µg/mL (≈ 3.46 to 34.6 µM) in experiment [12]. For the same molecule, in experiment [11] (setting [15]), the MBC amounted to 32 µg/mL (≈ 86.6 µM).
As to `CCCc1cc(=O)oc2c3c(c4c(c12)OC(C)(C)C=C4)O[C@@H](C)[C@H](C)[C@H]3O` [(−)-Calanolide A (2), (−)-Calanolide A], the IC50 in experiment [1] was over 10 µg/mL. Moreover, in experiment [7], the “% Inhibition” value came out at 98% and the MIC was 6.25 µg/mL (≈ 16.9 µM).

(Values after patent US6670383B2, “Pyranocoumarin compounds as a novel pharmacophore with anti-TB activity” (priority 2001, dated 2003).)
